Assays:
Aurora kinase A [1] = target: T1, Aurora kinase A (Homo sapiens, UniProt O14965); test: Inhibition of recombinant Aurora A (unknown origin) using myelin basic protein as substrate incubated for 30 mins in presence or absence of DTT by [gamma-33P]-ATP based radioactive filter binding assay
T1 sequence (O14965 whole entry): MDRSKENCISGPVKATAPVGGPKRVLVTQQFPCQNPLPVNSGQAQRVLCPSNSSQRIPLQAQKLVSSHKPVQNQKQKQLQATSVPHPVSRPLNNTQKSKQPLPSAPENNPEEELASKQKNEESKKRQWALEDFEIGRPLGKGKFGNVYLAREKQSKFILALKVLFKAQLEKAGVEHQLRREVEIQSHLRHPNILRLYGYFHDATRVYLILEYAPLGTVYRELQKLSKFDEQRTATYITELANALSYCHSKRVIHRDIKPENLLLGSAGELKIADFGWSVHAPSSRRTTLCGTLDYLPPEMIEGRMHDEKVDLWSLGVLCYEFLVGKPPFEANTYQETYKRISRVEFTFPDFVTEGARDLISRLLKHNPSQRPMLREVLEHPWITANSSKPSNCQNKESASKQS

Aurora kinase A [2] = target: T1, Aurora kinase A; test: Inhibition of recombinant Aurora A (unknown origin) using myelin basic protein as substrate incubated for 30 mins in presence of DTT by [gamma-33P]-ATP based radioactive filter binding assay
Aurora kinase A [3] = target: T1, Aurora kinase A; test: Inhibition of recombinant Aurora A (unknown origin) using myelin basic protein as substrate incubated for 30 mins in presence of DTT by [gamma-33P]-ATP based radioactive filter binding assay

Row | Structure (SMILES) | IC50 (Aurora kinase A [1]) [µM] | IC50 (Aurora kinase A [2]) [µM] | IC50 (Aurora kinase A [3]) [µM]
1 | CC(C)(COP(=O)(O)OP(=O)(O)OC[C@@H]1O[C@H](n2cnc3c(N)ncnc32)[C@@H](O)[C@H]1O)[C@H](O)C(=O)NCCC(=O)NCCS | 17 | – | –
2 | CCCNC(=O)CCNC(=O)[C@H](O)C(C)(C)COC(=O)CCC(=O)OC[C@@H]1O[C@H](n2cnc3c(N)ncnc32)[C@@H](O)[C@H]1O | 497 | – | –
3 | CC(C)(COC(=O)CCC(=O)OC[C@@H]1O[C@H](n2cnc3c(N)ncnc32)[C@@H](O)[C@H]1O)[C@@H](O)C(=O)NCCC(=O)NCCS | 83 | 117 | 117
4 | Nc1ncnc2c1ncn2[C@H]1O[C@@H](COC(=O)CC(=O)O)[C@H](O)[C@@H]1O | 420 | – | –
5 | Nc1ncnc2c1ncn2[C@H]1O[C@@H](CNC(=O)CC(=O)O)[C@H](O)[C@@H]1O | 910 | – | –
6 | CCNC(=O)CCNC(=O)[C@@H](O)C(C)(C)COP(=O)(O)OP(=O)(O)OC[C@@H]1O[C@H](n2cnc3c(N)ncnc32)[C@@H](O)[C@H]1OP(=O)(O)O | 160 | – | –
7 | CC(C)(COP(=O)(O)OP(=O)(O)OC[C@@H]1O[C@H](n2cnc3c(N)ncnc32)[C@@H](O)[C@H]1OP(=O)(O)O)[C@H](O)C(=O)NCCC(=O)NCCS | 5 | – | –
8 | CCCNC(=O)CCNC(=O)[C@H](O)C(C)(C)COC(=O)CCCC(=O)OC[C@@H]1O[C@H](n2cnc3c(N)ncnc32)[C@@H](O)[C@H]1O | 542 | – | –
9 | CC(C)(C)COC(=O)CCC(=O)OC[C@@H]1O[C@H](n2cnc3c(N)ncnc32)[C@@H](O)[C@H]1O | 430 | – | –
10 | CNC(=O)[C@H](O)C(C)(C)COC(=O)CCC(=O)OC[C@@H]1O[C@H](n2cnc3c(N)ncnc32)[C@@H](O)[C@H]1O | 1300 | – | –
11 | CCCNC(=O)CCNC(=O)[C@H](O)C(C)(C)COC(=O)CC(=O)OC[C@@H]1O[C@H](n2cnc3c(N)ncnc32)[C@@H](O)[C@H]1O | 1300 | – | –
12 | CNC(=O)CCNC(=O)[C@H](O)C(C)(C)COC(=O)CCC(=O)OC[C@@H]1O[C@H](n2cnc3c(N)ncnc32)[C@@H](O)[C@H]1O | 1400 | – | –
13 | CCCNC(=O)CCNC(=O)[C@H](O)C(C)(C)COC(=O)CC(=O)NC[C@@H]1O[C@H](n2cnc3c(N)ncnc32)[C@@H](O)[C@H]1O | 1100 | – | –
